ChEMBL document CHEMBL1201862, “PubChem BioAssay data set” (2004)
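Compound exposure: 48 hours, 5 concentrations, 96-well plates. The concentration for 50% growth inhibition is given as GI50.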 Activity calls are given as the source filed them. Cut-off read from the data, not from the text of the source: active = GI50 up to about 1.1 µM and inactive = higher.

Legend:
Assay in all cases: NCI tumour cell line growth inhibition, 48 h
HT-29 = test system: HT-29
TK-10 = test system: TK-10
KM12 = test system: KM12
DMS-273 = test system: DMS-273
SK-MEL-2 = test system: SK-MEL-2
LOX IMVI = test system: LOX IMVI
HOP-62 = test system: HOP-62
NCI-H226 = test system: NCI-H226
SN12C = test system: SN12C
Malme-3M = test system: Malme-3M
LXFL 529 = test system: LXFL 529
HOP-92 = test system: HOP-92
NCI-H23 = test system: NCI-H23
SK-MEL-28 = test system: SK-MEL-28
SNB-78 = test system: SNB-78
EKVX = test system: EKVX
SNB-75 = test system: SNB-75
HOP-18 = test system: HOP-18
SK-OV-3 = test system: SK-OV-3
SW-620 = test system: SW-620
NCI-H522 = test system: NCI-H522
HCT-15 = test system: HCT-15
UACC-62 = test system: UACC-62
COLO 205 = test system: COLO 205
OVCAR-3 = test system: OVCAR-3
SF-268 = test system: SF-268
MDA-MB-231 = test system: MDA-MB-231
PC-3 = test system: PC-3
T47D = test system: T47D
UO-31 = test system: UO-31
IGROV-1 = test system: IGROV-1
DU-145 = test system: DU-145
OVCAR-4 = test system: OVCAR-4
RPMI-8226 = test system: RPMI-8226
ACHN = test system: ACHN
SR = test system: SR
MOLT-4 = test system: MOLT-4
M14 = test system: M14
SK-MEL-5 = test system: SK-MEL-5
OVCAR-5 = test system: OVCAR-5
BT-549 = test system: BT-549
RXF 393 = test system: RXF 393
MDA-N = test system: MDA-N
Hs-578T = test system: Hs-578T
MCF7 = test system: MCF7
SNB-19 = test system: SNB-19
HCC 2998 = test system: HCC 2998
NCI/ADR-RES = test system: NCI/ADR-RES
SF-295 = test system: SF-295
SF-539 = test system: SF-539
CAKI-1 = test system: CAKI-1
U-251 = test system: U-251
MDA-MB-435 = test system: MDA-MB-435
OVCAR-8 = test system: OVCAR-8
HCT-116 = test system: HCT-116
786-0 = test system: 786-0
HL-60 = test system: HL-60
UACC-257 = test system: UACC-257
NCI-H460 = test system: NCI-H460
K562 = test system: K562
CCRF-CEM = test system: CCRF-CEM
A549 = test system: A549
A498 = test system: A498

## CC(C)C(=O)CC(c1ccc(Cl)cc1)N1N=C(C(C)C)CC1c1ccc(Cl)cc1 (stereo not given)
HT-29
  GI50: 14.6 µM (inactive)
TK-10
  GI50: > 100 µM (inactive)
KM12
  GI50: 40.6 µM (inactive)
DMS-273
  GI50: < 0.01 µM (active)
SK-MEL-2
  GI50: > 51.5 µM (inactive)
LOX IMVI
  GI50: < 0.01 µM (active)
HOP-62
  GI50: 70 µM (inactive)
NCI-H226
  GI50: > 100 µM (inactive)
SN12C
  GI50: < 0.01 µM (active)
Malme-3M
  GI50: < 0.01 µM (active)
LXFL 529
  GI50: 98.4 µM (inactive)
HOP-92
  GI50: > 86.3 µM (inactive)
NCI-H23
  GI50: 22.6 µM (inactive)
SK-MEL-28
  GI50: 40.7 µM (inactive)
SNB-78
  GI50: 5.97 µM (inactive)
EKVX
  GI50: 29.5 µM (inactive)
SNB-75
  GI50: 86.9 µM (inactive)
HOP-18
  GI50: < 0.01 µM (active)
SK-OV-3
  GI50: < 0.01 µM (active)
SW-620
  GI50: 37.2 µM (inactive)
NCI-H522
  GI50: < 0.01 µM (active)

## CC1CCC(O)/C=C/C(=O)OC(C)C(O)/C=C/C(=O)O1 (stereo not given)
HCT-15
  GI50: > 94 µM
HT-29
  GI50: > 100 µM (inactive)
TK-10
  GI50: > 83.8 µM (inactive)
UACC-62
  GI50: > 100 µM (inactive)
KM12
  GI50: > 100 µM (inactive)
COLO 205
  GI50: 64 µM (inactive)
SK-MEL-2
  GI50: > 100 µM (inactive)
OVCAR-3
  GI50: 57.1 µM (inactive)
SF-268
  GI50: > 100 µM (inactive)
MDA-MB-231
  GI50: > 100 µM (inactive)
LOX IMVI
  GI50: > 100 µM (inactive)
PC-3
  GI50: > 100 µM (inactive)
HOP-62
  GI50: > 100 µM (inactive)
T47D
  GI50: > 100 µM (inactive)
UO-31
  GI50: > 100 µM (inactive)
IGROV-1
  GI50: > 100 µM (inactive)
DU-145
  GI50: > 100 µM (inactive)
OVCAR-4
  GI50: > 100 µM (inactive)
RPMI-8226
  GI50: 74.1 µM (inactive)
NCI-H226
  GI50: > 100 µM (inactive)
ACHN
  GI50: > 68.4 µM (inactive)
SR
  GI50: 51.5 µM (inactive)
SN12C
  GI50: > 100 µM (inactive)
MOLT-4
  GI50: 19.1 µM (inactive)
M14
  GI50: > 56.1 µM (inactive)
SK-MEL-5
  GI50: > 100 µM (inactive)
OVCAR-5
  GI50: > 100 µM (inactive)
Malme-3M
  GI50: > 100 µM (inactive)
BT-549
  GI50: 41.8 µM (inactive)
RXF 393
  GI50: > 62.1 µM (inactive)
MDA-N
  GI50: > 95.9 µM (inactive)
HOP-92
  GI50: 52.8 µM (inactive)
Hs-578T
  GI50: > 100 µM (inactive)
MCF7
  GI50: > 92.9 µM (inactive)
SNB-19
  GI50: > 100 µM (inactive)
NCI-H23
  GI50: > 73.5 µM (inactive)
HCC 2998
  GI50: > 100 µM (inactive)
SK-MEL-28
  GI50: > 100 µM (inactive)
NCI/ADR-RES
  GI50: > 100 µM (inactive)
SF-295
  GI50: > 100 µM (inactive)
SF-539
  GI50: > 86.7 µM (inactive)
CAKI-1
  GI50: > 100 µM (inactive)
EKVX
  GI50: > 100 µM (inactive)
SNB-75
  GI50: > 100 µM (inactive)
U-251
  GI50: > 100 µM (inactive)
MDA-MB-435
  GI50: > 100 µM (inactive)
OVCAR-8
  GI50: > 100 µM (inactive)
HCT-116
  GI50: > 60.5 µM (inactive)
786-0
  GI50: > 92.9 µM (inactive)
HL-60
  GI50: 37.2 µM (inactive)
UACC-257
  GI50: > 100 µM (inactive)
NCI-H460
  GI50: > 100 µM (inactive)
K562
  GI50: 41.9 µM (inactive)
SK-OV-3
  GI50: > 100 µM (inactive)
SW-620
  GI50: 60.4 µM (inactive)
CCRF-CEM
  GI50: 25.4 µM (inactive)
NCI-H522
  GI50: 35.6 µM (inactive)
A549
  GI50: > 100 µM (inactive)
A498
  GI50: > 100 µM (inactive)
